PMC2222910 (The Journal of General Physiology, 1999)

Biological target: T1, P2X2 purinoceptor (Rattus norvegicus, UniProt P49653)
T1 sequence (P49653 1-472): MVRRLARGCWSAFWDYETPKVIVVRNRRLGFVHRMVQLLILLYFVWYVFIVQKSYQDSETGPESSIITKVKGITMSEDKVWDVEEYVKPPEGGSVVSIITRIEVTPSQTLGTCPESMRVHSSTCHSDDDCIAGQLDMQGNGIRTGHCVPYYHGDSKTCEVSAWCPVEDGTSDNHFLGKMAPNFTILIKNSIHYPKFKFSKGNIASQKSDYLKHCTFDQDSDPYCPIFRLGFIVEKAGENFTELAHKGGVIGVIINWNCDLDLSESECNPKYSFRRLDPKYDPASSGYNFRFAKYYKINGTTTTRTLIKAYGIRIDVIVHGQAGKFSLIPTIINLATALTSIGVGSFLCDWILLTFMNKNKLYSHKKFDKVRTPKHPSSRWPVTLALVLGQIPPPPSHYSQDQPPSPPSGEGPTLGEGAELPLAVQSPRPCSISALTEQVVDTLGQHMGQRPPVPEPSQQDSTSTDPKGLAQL
Test: single channel patch clamp of outside-out patches, Xenopus oocytes
Type: cell-based

EC50: 11.2 µM
Compound: Nc1ncnc2c1ncn2[C@@H]1O[C@H](COP(=O)(O)OP(=O)(O)OP(=O)(O)O)[C@@H](O)[C@H]1O [ATP]
